# Measurements reported in patent US12115209B2, “ROMO1-derived antimicrobial peptides including lysine substitution and variants thereof” (KOREA UNIVERSITY RESEARCH AND BUSINESS FOUNDATION, priority 2019, dated 2024).
# Key:
# Format in all cases: cell-based
# [1] = test system: Staphylococcus aureus (ATCC 29213); test: Minimum bactericidal concentration (MBC) assay; design: MBC Staphylococcus aureus: unit: µg/mL; settings: Tables 11-21, no unit printed
# Experimental: (§1) First, each of Pseudomonas aeruginosa (ATCC 27853) and Staphylococcus aureus (ATCC 29213) was cultured in 3% (w/v) TSB (tryptic soy broth) liquid medium at 37° C. and 200 rpm for 4 hours, and then further cultured under the same conditions for 3 hours to a concentration of 5×10^6 CFU/ml. Strain solutions were prepared by diluting each of the further cultured strains with SP (sodium phosphate; 10 mM sodium phosphate, 1% TSB) buffer to a final concentration of 2×10^5 CFU/ml.
# (§2) Then, each peptide at varying concentrations (0 μg/ml to 300 μg/ml) was dispensed into each well of a 96-well microplate, and 100 μl (1×10^5 CFU/ml) of each of the prepared strain solutions was added thereto, mixed therewith, and allowed to react with the peptide in an incubator at 37° C. for 1 hour.
# (§3) In addition, 30 g/L of TS (tryptic soy) and 15 g/L of agar were dissolved in distilled water and sterilized, and then 25 ml of the solution was poured onto a 100 mm round plate and solidified at room temperature for one day or more, thereby preparing a TS agar plate. 10 μl of each reaction solution of the peptide and the strain was plated on the TS agar plate at a constant size, and incubated in an incubator at 37° C. for 18 hours, and then colony formation on the plate was checked. The minimum bactericidal concentration was defined as the minimum concentration of the peptide at which no colony was formed, and the experimental results are shown in Table 1 below.
# [2] = test system: Pseudomonas aeruginosa (ATCC 27853); test: Minimum bactericidal concentration (MBC) assay; design: MBC Pseudomonas aeruginosa: unit: µg/mL; settings: Tables 11-21, no unit printed
# Experimental: as §1, §2, §3
# [3] = test system: Methicillin-resistant Staphylococcus aureus (MRSA, ATCC 33591); test: Minimum bactericidal concentration (MBC) assay; design: unit: µg/mL; settings: Tables 11-21, no unit printed
# Experimental: as §1, with “2×10^5 CFU/ml. […]” for “2×10^5 CFU/ml.”
# as §3, with “checked.” for “checked. The minimum bactericidal concentration was defined as the minimum concentration of the peptide at which no colony was formed, and the experimental results are shown in Table 1 below.”
# Specifically, each type of bacteria was cultured in 3% (w/v) TSB (tryptic soy broth) liquid medium at 37° C. and 200 rpm for 4 hours, and then further cultured under the same conditions for 3 hours to a concentration of 5×10^6 CFU/ml. Strain solutions were prepared by diluting each of the further cultured strains with SP buffer to a final concentration of 2×10^5 CFU/ml.
# as §2, with “Then, the KU-5878” for “Then, each”
# In addition, 10 μl of each reaction solution of the peptide and the strain was plated on the TS agar plate at a constant size, and incubated in an incubator at 37° C. for 18 hours, and then colony formation on the plate was checked.
# CRPA = test: Minimum bactericidal concentration (MBC) assay; design: unit: µg/mL; settings: Tables 11-21, no unit printed
# [4] = test system: Pseudomonas aeruginosa, Staphylococcus aureus, CRPA, MRSA; test: Increase in antibacterial activity (MBC) compared with KU-5878; settings: mark = antibacterial activity increased compared with KU-5878
Substance,MBC Staphylococcus aureus [1],MBC Pseudomonas aeruginosa [2],MBC MRSA [3],MBC CRPA (CRPA),Increase in activity [4]
-K-MKKGGKFGTFMAIG-GIR [d 58K 60M 75M],6 µg/mL,6 µg/mL,8 µg/mL,8 µg/mL,◯
-KMM-KGGKF-TFM-IG-GIR [d 58K 62K 68G 72A 75M],15 µg/mL,16 µg/mL,18 µg/mL,15 µg/mL,◯
-KMMKK-GKFG-F--IGMGIR [d 58K 64G 69T 71M 72A],2 µg/mL,2 µg/mL,3 µg/mL,3 µg/mL,◯
-KMMKKGGKFGTF-AIG-GIR [d 58K 71M 75M],3 µg/mL,4 µg/mL,4 µg/mL,2 µg/mL,◯
-KMMKKGGKFGTF-AIGMGIR [Peptide K4-d58K-d71M],8 µg/mL,10 µg/mL,10 µg/mL,10 µg/mL,◯
-KMMKKGGKFGTFMAIGMGIR [5878-K4-d58K(=d59K)],6 µg/mL,2 µg/mL,2 µg/mL,6 µg/mL,◯
KK---KGGKFGTF-AIG-GIR [d 60M 61M 62K 71M 75M],80 µg/mL,80 µg/mL,80 µg/mL,80 µg/mL,◯
KK-M-KGGKF-TFM-IG-GIR [d 60M 62K 68G 72A 75M],4 µg/mL,4 µg/mL,5 µg/mL,4 µg/mL,◯
KK-MKKGGKFGTF--IGMGIR [d 60M 71M 72A],8 µg/mL,8 µg/mL,10 µg/mL,8 µg/mL,◯
KK-MKKGGKFGTF-AIG-GIR [d 60M 71M 75M],2 µg/mL,2 µg/mL,2 µg/mL,3 µg/mL,◯
KK-MKKGGKFGTF-AIGMGIR [Peptide K4-d60M-d71M],10 µg/mL,10 µg/mL,12 µg/mL,10 µg/mL,◯
KK-MKKGGKFGTFMAIGMGIR [5878-K4-d60M(=d61M)],3 µg/mL,2 µg/mL,2 µg/mL,4 µg/mL,◯
KKIIKKGGKFGTFIAIGIGIR [Peptide K4-4MI],2,3,3,3,◯
KKMM-K-GKF-TFM-IG-GIR [d 62K 64G 68G 72A 75M],4 µg/mL,4 µg/mL,4 µg/mL,4 µg/mL,◯
KKMM-KGGKF--FM-IG-GIR [d 62K 68G 69T 72A 75M],8 µg/mL,8 µg/mL,10 µg/mL,8 µg/mL,◯
KKMM-KGGKF-TF--IG-GIR [d 62K 68G 71M 72A 75M],20 µg/mL,20 µg/mL,25 µg/mL,20 µg/mL,◯
KKMM-KGGKFGTF-AIG-GIR [d 62K 71M 75M],4 µg/mL,3 µg/mL,3 µg/mL,4 µg/mL,◯

Substance,MBC Staphylococcus aureus [1],MBC Pseudomonas aeruginosa [2],MBC MRSA [3],MBC CRPA (CRPA),Increase in activity [4]
KKMM-KGGKFGTF-AIGMGIR [Peptide K4-d62K-d71M],12 µg/mL,12 µg/mL,12 µg/mL,12 µg/mL,◯
KKMM-KGGKFGTFMAIGMGIR [5878-K4-d62K(=d63K)],6 µg/mL,2 µg/mL,6 µg/mL,6 µg/mL,◯
KKMMKK-GKFGTF-AIG-GIR [d 64G 71M 75M],3 µg/mL,2 µg/mL,3 µg/mL,3 µg/mL,◯
KKMMKK-GKFGTF-AIGMGIR [Peptide K4-d64G-d71M],15 µg/mL,15 µg/mL,18 µg/mL,18 µg/mL,◯
KKMMKK-GKFGTFMAIGMGIR [5878-K4-d64G(=d65G)],2 µg/mL,2 µg/mL,2 µg/mL,4 µg/mL,◯
KKMMKKGG-FGTFMAIGMGIR [Peptide 5878-K4-d66K],6 µg/mL,4 µg/mL,4 µg/mL,4 µg/mL,◯
KKMMKKGGK-GTFMAIGMGIR [Peptide 5878-K4-d67F],6 µg/mL,4 µg/mL,4 µg/mL,5 µg/mL,◯
KKMMKKGGKF-TFMAIGMGIR [Peptide 5878-K4-d68G],4 µg/mL,4 µg/mL,4 µg/mL,6 µg/mL,◯
KKMMKKGGKFG-F--IGMGIR [d 69T 71M 72A],2 µg/mL,2 µg/mL,4 µg/mL,3 µg/mL,◯
KKMMKKGGKFG-F-AIG-GIR [d 69T 71M 75M],2 µg/mL,2 µg/mL,2 µg/mL,3 µg/mL,◯
KKMMKKGGKFG-F-AIGMGIR [Peptide K4-d69T-d71M],10 µg/mL,10 µg/mL,12 µg/mL,12 µg/mL,◯
KKMMKKGGKFG-FMAIGMGIR [Peptide 5878-K4-d69T],2 µg/mL,4 µg/mL,2 µg/mL,3 µg/mL,◯
KKMMKKGGKFGGFMAIGMGIR [Peptide K4-T69G],2,2,3,2,◯
KKMMKKGGKFGTF--IG-GIR [d 71M 72A 75M],3 µg/mL,2 µg/mL,3 µg/mL,2 µg/mL,◯
KKMMKKGGKFGTF--IGMGIR [Peptide K4-d71M-d72A],20 µg/mL,20 µg/mL,20 µg/mL,20 µg/mL,◯
KKMMKKGGKFGTF-AIG-GIR [Peptide K4-d71M-d75M],3 µg/mL,4 µg/mL,5 µg/mL,4 µg/mL,◯
KKMMKKGGKFGTF-AIGMGIR [Peptide 5878-K4-d71M],4 µg/mL,2 µg/mL,4 µg/mL,6 µg/mL,◯
